System: porcine liver esterase (PLE)
Test: fluorogenic hydrolysis, Michaelis-Menten fit
Format: biochemical, Sus scrofa
Details: HEPES pH 7.4, 23 ± 2 °C, DMSO up to 1.5% v/v

Molecule | Km [µM] | Km (two ester groups per molecule) [µM]
Tokyo green acetoxymethyl ether [compound 6] | 13 | 
CC(=O)OCOc1ccc2nc3ccc(=O)cc-3oc2c1 [compound 9, Resorufin acetoxymethyl ether] | 21 | 
CC(=O)Oc1ccc2nc3ccc(=O)cc-3oc2c1 [compound 10, resorufin acetate] | 16 | 
CC(=O)Oc1ccc2c(c1)Oc1cc(OC(C)=O)ccc1C21OC(=O)c2ccccc21 [2a, fluorescein diacetate] |  | 11
Tokyo Green acetate [compound 7] | 12 | 

— paper PMC3049939 (Chemical science (Royal Society of Chemistry : 2010), 2011)
